Laboratory results taken from patent US20230139171A1 (SITA Information Networking Computing UK Limited, priority 2019, published 2023).
Where two headings read alike, the source gives them in different places.

Assays:
Assay type in all cases: cell-based
human TLR9 = molecular target: T1, human TLR9 (Homo sapiens, UniProt Q9NR96); test: TLR9 inhibition reporter assay (HEK-Blue cells, SEAP reporter, ODN2006 stimulation); conditions: HEK-Blue cells overexpressing human TLR9, SEAP reporter, ODN2006 5 nM
T1 construct: host or cells: HEK-Blue cells
T1 sequence (Q9NR96 26-1032): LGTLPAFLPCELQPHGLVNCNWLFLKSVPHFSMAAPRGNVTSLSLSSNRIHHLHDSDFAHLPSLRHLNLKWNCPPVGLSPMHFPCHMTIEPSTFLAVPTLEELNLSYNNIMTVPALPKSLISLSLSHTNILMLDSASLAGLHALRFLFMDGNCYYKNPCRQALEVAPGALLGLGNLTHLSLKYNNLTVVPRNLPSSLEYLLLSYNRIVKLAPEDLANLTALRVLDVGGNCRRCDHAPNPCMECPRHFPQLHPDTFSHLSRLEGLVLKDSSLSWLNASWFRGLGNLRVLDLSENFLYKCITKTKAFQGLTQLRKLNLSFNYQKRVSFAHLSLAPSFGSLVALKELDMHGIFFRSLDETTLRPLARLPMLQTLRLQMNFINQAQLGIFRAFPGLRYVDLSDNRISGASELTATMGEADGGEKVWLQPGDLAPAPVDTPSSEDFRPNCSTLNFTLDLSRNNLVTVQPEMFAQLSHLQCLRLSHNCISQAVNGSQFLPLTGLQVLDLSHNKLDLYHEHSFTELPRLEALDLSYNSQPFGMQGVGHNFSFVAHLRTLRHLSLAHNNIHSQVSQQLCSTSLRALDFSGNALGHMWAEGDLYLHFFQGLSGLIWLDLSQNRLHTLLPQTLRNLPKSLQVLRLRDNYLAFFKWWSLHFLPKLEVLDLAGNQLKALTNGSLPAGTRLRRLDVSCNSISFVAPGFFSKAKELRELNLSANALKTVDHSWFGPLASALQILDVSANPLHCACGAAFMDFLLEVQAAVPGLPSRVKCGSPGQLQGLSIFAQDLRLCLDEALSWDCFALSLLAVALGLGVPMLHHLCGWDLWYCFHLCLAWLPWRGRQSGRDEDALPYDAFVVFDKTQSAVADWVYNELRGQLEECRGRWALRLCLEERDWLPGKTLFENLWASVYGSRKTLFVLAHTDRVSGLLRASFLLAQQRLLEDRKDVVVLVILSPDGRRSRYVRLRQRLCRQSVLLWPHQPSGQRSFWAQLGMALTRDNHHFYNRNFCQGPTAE
Description: TLR7/8/9 Inhibition Reporter Assays
HEK-Blue™-cells (Invivogen) overexpressing human TLR7, TLR8 or TLR9 receptors were used for screening inhibitors of these receptors using an inducible SEAP (secreted embryonic alkaline phosphatase) reporter gene under the control of the IFN-β minimal promoter fused to five NF-κB and AP-1-binding sites. Briefly, cells are seeded into Greiner 384 well plates (15000 cells per well for TLR7, 20,000 for TLR8 and 25,000 for TLR9) and then treated with test compounds in DMSO to yield a final dose response concentration range of 0.05 nM-50 μM. After a 30 minute compound pre-treatment at room temperature, the cells are then stimulated with a TLR7 ligand (gardiquimod at a final concentration of 7.5 μM), TLR8 ligand (R848 at a final concentration of 15.9 μM) or TLR9 ligand (ODN2006 at a final concentration of 5 nM) to activate NF-κB and AP-1 which induce the production of SEAP. After a 22 hour incubation at 37° C., 5% CO2, SEAP levels are determined with the addition of HEK-Blue™ Detection reagent (Invivogen), a cell culture medium that allows for detection of SEAP, according to manufacturer's specifications. The percent inhibition is determined as the % reduction in the HEK-Blue signal present in wells treated with agonist plus DMSO alone compared to wells treated with a known inhibitor.

human TLR7 = molecular target: T2, human TLR7 (Homo sapiens, UniProt Q9NYK1); test: TLR7 inhibition reporter assay (HEK-Blue cells, SEAP reporter, gardiquimod stimulation); conditions: gardiquimod 7.5 μM
T2 construct: host or cells: HEK-Blue cells
T2 sequence (Q9NYK1 27-1049): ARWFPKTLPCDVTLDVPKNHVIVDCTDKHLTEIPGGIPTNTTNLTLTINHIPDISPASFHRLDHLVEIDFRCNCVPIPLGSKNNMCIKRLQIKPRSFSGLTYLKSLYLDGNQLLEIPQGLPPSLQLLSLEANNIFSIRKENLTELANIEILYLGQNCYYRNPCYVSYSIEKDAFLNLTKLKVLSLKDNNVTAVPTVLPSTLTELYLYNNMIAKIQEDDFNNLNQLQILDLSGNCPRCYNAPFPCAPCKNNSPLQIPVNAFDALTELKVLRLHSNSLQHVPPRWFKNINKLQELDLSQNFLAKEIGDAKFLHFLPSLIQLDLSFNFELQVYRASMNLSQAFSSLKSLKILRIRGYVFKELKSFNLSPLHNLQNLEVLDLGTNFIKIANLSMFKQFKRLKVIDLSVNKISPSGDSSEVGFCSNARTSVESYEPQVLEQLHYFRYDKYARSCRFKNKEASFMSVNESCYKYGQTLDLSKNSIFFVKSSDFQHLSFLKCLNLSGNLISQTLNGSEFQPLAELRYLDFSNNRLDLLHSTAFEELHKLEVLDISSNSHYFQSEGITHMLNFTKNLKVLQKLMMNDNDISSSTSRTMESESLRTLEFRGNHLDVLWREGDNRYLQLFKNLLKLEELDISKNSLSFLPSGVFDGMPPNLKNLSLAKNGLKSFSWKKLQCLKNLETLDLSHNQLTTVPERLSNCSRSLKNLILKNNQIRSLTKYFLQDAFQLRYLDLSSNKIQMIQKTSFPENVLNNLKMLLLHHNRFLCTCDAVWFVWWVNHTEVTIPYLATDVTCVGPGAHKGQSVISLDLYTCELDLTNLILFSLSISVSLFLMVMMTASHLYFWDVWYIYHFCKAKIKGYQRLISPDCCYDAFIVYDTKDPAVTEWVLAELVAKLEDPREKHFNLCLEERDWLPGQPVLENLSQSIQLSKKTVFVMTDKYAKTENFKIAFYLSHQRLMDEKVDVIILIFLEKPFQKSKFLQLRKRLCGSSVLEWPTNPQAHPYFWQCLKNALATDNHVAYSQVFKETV
How it was run: (§1)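 Screening used HEK-Blue cells overexpressing one human TLR (7, 8 or 9) and an IFN-β minimal promoter–NF-κB/AP-1 SEAP construct. Stimulation lasted 22 h at 37 °C with receptor-specific agonist: gardiquimod, R848 or ODN2006 at 7.5 μM, 15.9 μM and 5 nM.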

human TLR8 = molecular target: T3, human TLR8 (Homo sapiens, UniProt Q9NR97); test: TLR8 inhibition reporter assay (HEK-Blue cells, SEAP reporter, R848 stimulation); conditions: R848 15.9 μM
T3 construct: host or cells: HEK-Blue cells
T3 sequence (Q9NR97 27-1041): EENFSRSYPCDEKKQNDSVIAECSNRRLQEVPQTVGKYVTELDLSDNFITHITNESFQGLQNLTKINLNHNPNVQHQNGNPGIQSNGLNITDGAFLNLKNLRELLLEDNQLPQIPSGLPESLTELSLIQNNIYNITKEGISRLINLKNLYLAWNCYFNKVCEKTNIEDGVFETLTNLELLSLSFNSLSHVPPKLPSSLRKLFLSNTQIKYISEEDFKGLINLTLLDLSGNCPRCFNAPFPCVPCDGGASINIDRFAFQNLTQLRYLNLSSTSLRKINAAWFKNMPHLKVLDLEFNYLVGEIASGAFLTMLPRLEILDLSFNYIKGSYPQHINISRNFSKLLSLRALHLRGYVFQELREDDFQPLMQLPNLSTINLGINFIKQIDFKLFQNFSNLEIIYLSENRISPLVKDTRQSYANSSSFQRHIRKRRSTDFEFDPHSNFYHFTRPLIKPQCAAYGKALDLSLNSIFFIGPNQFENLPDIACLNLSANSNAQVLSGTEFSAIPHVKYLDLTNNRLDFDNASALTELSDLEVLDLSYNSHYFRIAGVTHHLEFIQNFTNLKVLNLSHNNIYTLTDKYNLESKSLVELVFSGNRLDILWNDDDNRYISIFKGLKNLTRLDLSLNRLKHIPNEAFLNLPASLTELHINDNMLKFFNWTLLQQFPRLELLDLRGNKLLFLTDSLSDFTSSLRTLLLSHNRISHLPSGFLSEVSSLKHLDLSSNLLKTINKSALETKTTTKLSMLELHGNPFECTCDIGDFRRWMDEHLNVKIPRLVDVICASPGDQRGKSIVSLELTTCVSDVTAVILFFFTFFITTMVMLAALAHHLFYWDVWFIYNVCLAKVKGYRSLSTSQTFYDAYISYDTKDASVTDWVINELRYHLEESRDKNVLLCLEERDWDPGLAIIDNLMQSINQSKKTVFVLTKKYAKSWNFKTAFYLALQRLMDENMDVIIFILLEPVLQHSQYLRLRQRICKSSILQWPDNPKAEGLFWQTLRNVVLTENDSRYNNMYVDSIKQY
How it was run: as §1

[1] = HEK-Blue cells overexpressing human TLR7, SEAP reporter, read-out: TLR7 IC50
[2] = HEK-Blue cells overexpressing human TLR8, SEAP reporter, read-out: TLR8 IC50

`COc1cc(-c2c(C(C)C)c3nc(C4CCN(CC(F)(F)F)CC4)sc3n2CC(F)(F)F)cn2ncnc12` [Example 9, 6-isopropyl-5-(8-methoxy-[1,2,4]triazolo[1,5-a]pyridin-6-yl)-4-(2,2,2-trifluoroethyl)-2-(1-(2,2,2-trifluoroethyl)piperidin-4-yl)-4H-pyrrolo[3,2-d]thiazole] was tested, and the IC50 (human TLR9) was 4160 nM.

With `Cc1cc(-c2[nH]c3sc(N4CCNC[C@H]4C)nc3c2C(C)C)cn2ncnc12` [Example 311, (R)-6-isopropyl-5-(8-methyl-[1,2,4]triazolo[1,5-a]pyridin-6-yl)-2-(2-methylpiperazin-1-yl)-4H-pyrrolo[3,2-d]thiazole] the IC50 (human TLR7; [1]) was 1400 nM and the IC50 (human TLR9) was 18800 nM.

For `Cc1cc(-c2[nH]c3sc(N4CCN(C5CCC5)C[C@H]4C)nc3c2C(C)C)cn2ncnc12` [Example 362, (R)-2-(4-cyclobutyl-2-methylpiperazin-1-yl)-6-isopropyl-5-(8-methyl-[1,2,4]triazolo[1,5-a]pyridin-6-yl)-4H-pyrrolo[3,2-d]thiazole], the IC50 (human TLR9) was 25100 nM.

In the case of `Cc1cc(-c2[nH]c3sc(C(=O)N4CCOCC4)nc3c2C(C)C)cn2ncnc12` [Example 398, (6-isopropyl-5-(8-methyl-[1,2,4]triazolo[1,5-a]pyridin-6-yl)-4H-pyrrolo[3,2-d]thiazol-2-yl)(morpholino)methanone], the IC50 (human TLR8; [2]) is reported as 365 nM and the IC50 (human TLR7; [1]) is reported as 137 nM.

Molecule `Cc1cc(-c2[nH]c3sc(C(=O)NCC4(S(C)(=O)=O)CC4)nc3c2C(C)C)cn2ncnc12` [Example 399, 6-isopropyl-5-(8-methyl-[1,2,4]triazolo[1,5-a]pyridin-6-yl)-N-((1-(methylsulfonyl)cyclopropyl)methyl)-4H-pyrrolo[3,2-d]thiazole-2-carboxamide] has an IC50 (human TLR8; [2]) of 132 nM and an IC50 (human TLR7; [1]) of 126 nM.

Molecule `Cc1c(-c2[nH]c3sc(CNCC(N)=O)nc3c2C(C)C)cn2ncnc2c1C` [Example 402, 2-(((5-(7,8-dimethyl-[1,2,4]triazolo[1,5-a]pyridin-6-yl)-6-isopropyl-4H-pyrrolo[3,2-d]thiazol-2-yl)methyl)amino)acetamide] has an IC50 (human TLR8; [2]) of 297 nM and an IC50 (human TLR7; [1]) of 35.1 nM.

`Cc1c(-c2[nH]c3sc(CN4CC5(C4)CS(=O)(=O)C5)nc3c2C(C)C)cn2ncnc2c1C` [Example 403, 6-((5-(7,8-dimethyl-[1,2,4]triazolo[1,5-a]pyridin-6-yl)-6-isopropyl-4H-pyrrolo[3,2-d]thiazol-2-yl)methyl)-2-thia-6-azaspiro[3.3]heptane 2,2-dioxide] showed an IC50 (human TLR8; TLR8 IC50, HEK-Blue cells overexpressing human TLR8, SEAP reporter) of 156 nM and an IC50 (human TLR7; TLR7 IC50, HEK-Blue cells overexpressing human TLR7, SEAP reporter) of 26.9 nM.

With `Cc1c(-c2[nH]c3sc(CN4CC5(CCOCC5)C4)nc3c2C(C)C)cn2ncnc2c1C` [Example 404, 2-((5-(7,8-dimethyl-[1,2,4]triazolo[1,5-a]pyridin-6-yl)-6-isopropyl-4H-pyrrolo[3,2-d]thiazol-2-yl)methyl)-7-oxa-2-azaspiro[3.5]nonane] the IC50 (human TLR8; [2]) was 124 nM and the IC50 (human TLR7; [1]) was 43.6 nM.

`Cc1c(-c2[nH]c3sc(CN4CCNC(=O)C4)nc3c2C(C)C)cn2ncnc2c1C` [Example 406, 4-((5-(7,8-dimethyl-[1,2,4]triazolo[1,5-a]pyridin-6-yl)-6-isopropyl-4H-pyrrolo[3,2-d]thiazol-2-yl)methyl) piperazin-2-one] showed an IC50 (human TLR8; [2]) of 142 nM and an IC50 (human TLR7; [1]) of 2.74 nM.

Molecule `Cc1c(-c2[nH]c3sc(CN4CCOCC4)nc3c2C(C)C)cn2ncnc2c1C` [Example 407, 4-((5-(7,8-dimethyl-[1,2,4]triazolo[1,5-a]pyridin-6-yl)-6-isopropyl-4H-pyrrolo[3,2-d]thiazol-2-yl)methyl)morpholine] has an IC50 (human TLR8; [2]) of 279 nM and an IC50 (human TLR7; [1]) of 28.6 nM.

Molecule `Cc1c(-c2[nH]c3sc(CN4CC5(COC5)C4)nc3c2C(C)C)cn2ncnc2c1C` [Example 408, 6-((5-(7,8-dimethyl-[1,2,4]triazolo[1,5-a]pyridin-6-yl)-6-isopropyl-4H-pyrrolo[3,2-d]thiazol-2-yl)methyl)-2-oxa-6-azaspiro[3.3]heptane] has an IC50 (human TLR8; [2]) of 168 nM and an IC50 (human TLR7; [1]) of 47.4 nM.
